{"source": "patent US10039825B2", "about": "“Combination therapy with CD4 lymphocyte depletion and MTOR inhibitors” (Cedars-Sinai Medical Center, priority 2010, dated 2018)", "key": {"[1]": {"system": "C57 BL/6 or Pmel-1 mouse lymph node lymphocytes", "assay": "[3H] thymidine incorporation assay of stimulated lymph node lymphocytes", "assay_type": "cell-based", "details": "lymphocytes stimulated with anti-CD3 and anti-CD28 mAb or gp100 peptide, 72 hours; FIG. 1A", "protocol": "As has been well established, mTOR inhibitors have immune suppressing activity. For the [3H] thymidine incorporation assay, lymph nodes were harvested from naïve C57 BL/6 or Pmel-1 mouse, 3×10^5 cells/well were cultured in 96-well plates and stimulated, with or without mTOR inhibitors, for 72 hours. C57 BL/6 lymphocytes were stimulated with anti-CD3 and anti-CD28 mAb, and Pmel-1 lymphocytes were stimulated with […]. DNA synthesis was determined by incubation for 16 h with 1 μCi [3H]thymidine (Amersham Biosciences, Piscataway, N.J., USA)."}, "[2]": {"system": "CD4+FoxP3+ lymphocytes", "assay": "in vivo effect on CD4+FoxP3+ lymphocytes (flow cytometry)", "parameters": "species or system B6 mice", "details": "treated daily for 24 days; FoxP3 staining gated on CD4; FIG. 1B", "protocol": "Further, in vivo effect of temsirolimus on CD4+FoxP3+ lymphocytes was assessed. B6 mice (5 mice per group) were treated daily with temsirolimus for 24 days, 2 doses of vaccine (complex of hsp110 and gp100), or both. FoxP3 staining was quantified with flow cytometry while gating on CD4. […] Representative results are shown from at least 2 independent experiments."}, "[3]": {"system": "RENCA tumor cells", "assay": "RENCA tumor re-challenge after treatment (antitumor immune memory)", "assay_type": "in vivo, Balb/c mice", "details": "re-challenged with 2×10^5 RENCA cells on day 47; tumor size 11 and 18 days after; FIG. 4", "protocol": "Ten days after subcutaneous implantation of 2×10^5 tumor cells, Balb/c mice were treated with temsirolimus (30 ug/mouse daily on days 14 to 34, intraperitoneally) or temsirolimus plus CD4 depleting antibody (intraperitoneal injection of 200 μg of GK1.5 mAb, administered at day 6 and 10). Mice were re-challenged with 2×10^5 RENCA tumor cells on day 47. Naïve mouse group was also challenged with RENCA and served as a control. Tumor size was measured 11 and 18 days after the re-challenge. […] Since the mice were not being actively treated at the time of tumor re-challenge, direct antitumor effects of the therapy cannot account for the effects on tumor growth."}}, "data": [{"smiles": "CO[C@H]1C[C@@H]2CC[C@@H](C)[C@@](O)(O2)C(=O)C(=O)N2CCCC[C@H]2C(=O)O[C@H]([C@H](C)C[C@@H]2CC[C@@H](OC(=O)C(C)(CO)CO)[C@H](OC)C2)CC(=O)[C@H](C)/C=C(\\C)[C@@H](O)[C@@H](OC)C(=O)[C@H](C)C[C@H](C)/C=C/C=C/C=C/1C", "note": "[temsirolimus, Temsirolimus]", "values": [{"measurement": "immune suppressing activity, DNA synthesis by [3H]thymidine incorporation", "setting": "[1]", "value": "nearly identical activities"}, {"measurement": "Foxp3 positive lymphocytes (regulatory T cells)", "setting": "[2]", "value": "increased"}, {"measurement": "tumor growth after re-challenge", "setting": "[3]", "value": "grew at the same rate"}]}]}
